The values that follow come from ChEMBL document CHEMBL5291721, “A preclinical secondary pharmacology resource illuminates target-adverse drug reaction associations of marketed drugs” (Nat Commun, 2023).

Usually AC50 stands for the concentration at which the activity in the assay is half-maximal.

Experiment [1] has as its target Beta-3 adrenergic receptor (Homo sapiens, UniProt P13945).
The target in a further experiment is T1, Androgen receptor (Rattus norvegicus, UniProt P15207).
T1 sequence (P15207 whole entry): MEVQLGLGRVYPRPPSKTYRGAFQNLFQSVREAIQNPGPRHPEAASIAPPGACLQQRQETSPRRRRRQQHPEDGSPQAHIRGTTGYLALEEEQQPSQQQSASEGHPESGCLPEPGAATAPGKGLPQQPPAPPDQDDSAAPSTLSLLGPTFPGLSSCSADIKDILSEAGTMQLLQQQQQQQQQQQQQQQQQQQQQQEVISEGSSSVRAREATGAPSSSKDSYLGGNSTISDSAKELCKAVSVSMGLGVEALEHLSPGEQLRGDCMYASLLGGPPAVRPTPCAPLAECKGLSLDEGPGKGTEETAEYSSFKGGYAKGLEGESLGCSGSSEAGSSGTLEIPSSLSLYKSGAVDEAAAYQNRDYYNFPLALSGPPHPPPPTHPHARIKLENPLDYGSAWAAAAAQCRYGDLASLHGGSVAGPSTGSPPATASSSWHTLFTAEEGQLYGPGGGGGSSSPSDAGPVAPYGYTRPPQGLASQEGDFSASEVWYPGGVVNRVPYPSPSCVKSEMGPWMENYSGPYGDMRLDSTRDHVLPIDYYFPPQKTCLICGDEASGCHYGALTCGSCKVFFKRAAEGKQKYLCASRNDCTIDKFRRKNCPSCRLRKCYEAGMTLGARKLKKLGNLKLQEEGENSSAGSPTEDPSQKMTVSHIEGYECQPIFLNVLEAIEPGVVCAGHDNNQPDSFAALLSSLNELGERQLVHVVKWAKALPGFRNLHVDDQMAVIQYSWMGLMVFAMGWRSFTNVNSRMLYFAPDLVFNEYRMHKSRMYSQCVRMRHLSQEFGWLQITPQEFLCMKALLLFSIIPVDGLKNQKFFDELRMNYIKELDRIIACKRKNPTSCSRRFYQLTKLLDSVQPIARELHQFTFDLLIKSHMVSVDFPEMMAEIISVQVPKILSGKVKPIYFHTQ

Experiment [2] addresses Voltage-dependent N-type calcium channel subunit alpha-1B (Rattus norvegicus, UniProt Q02294). Type of experiment: functional.
For experiment [3], the target named is T2, Peroxisome proliferator-activated receptor gamma (Homo sapiens, UniProt P37231).
T2 sequence (P37231 whole entry): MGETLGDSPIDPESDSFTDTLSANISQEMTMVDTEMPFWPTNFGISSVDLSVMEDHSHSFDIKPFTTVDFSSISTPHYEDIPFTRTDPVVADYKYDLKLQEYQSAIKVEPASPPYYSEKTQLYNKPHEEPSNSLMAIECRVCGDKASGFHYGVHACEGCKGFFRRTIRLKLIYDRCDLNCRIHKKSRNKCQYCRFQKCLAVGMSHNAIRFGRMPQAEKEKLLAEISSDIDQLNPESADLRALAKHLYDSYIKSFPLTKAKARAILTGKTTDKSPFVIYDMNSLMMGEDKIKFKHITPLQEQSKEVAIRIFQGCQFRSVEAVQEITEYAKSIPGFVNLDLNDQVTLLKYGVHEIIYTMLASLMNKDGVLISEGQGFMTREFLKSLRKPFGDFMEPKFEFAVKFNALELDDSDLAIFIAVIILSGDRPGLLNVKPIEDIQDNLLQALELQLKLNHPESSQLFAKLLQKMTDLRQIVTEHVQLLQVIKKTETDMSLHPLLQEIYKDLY
Type of experiment: functional.

Experiment [4] concerns the target Sodium channel protein type 5 subunit alpha (Homo sapiens, UniProt Q14524). It is filed as functional, cell-based.
For experiment [5], the target named is Gamma-aminobutyric acid receptor subunit alpha-1/alpha-2/beta-2/gamma-2 (Homo sapiens, UniProt P14867+P18507+P47869+P47870). Type of experiment: functional, cell-based.
Experiment [6] addresses Gamma-aminobutyric acid type B receptor subunit 1 (Homo sapiens, UniProt Q9UBS5).
For experiment [7], the target named is 5-hydroxytryptamine receptor 6 (Homo sapiens, UniProt P50406).
In experiment [8] the target is 5-hydroxytryptamine receptor 7 (Homo sapiens, UniProt P34969).
Experiment [9] concerns the target T3, Muscarinic acetylcholine receptor M5 (Homo sapiens, UniProt P08912).
T3 sequence (P08912 whole entry): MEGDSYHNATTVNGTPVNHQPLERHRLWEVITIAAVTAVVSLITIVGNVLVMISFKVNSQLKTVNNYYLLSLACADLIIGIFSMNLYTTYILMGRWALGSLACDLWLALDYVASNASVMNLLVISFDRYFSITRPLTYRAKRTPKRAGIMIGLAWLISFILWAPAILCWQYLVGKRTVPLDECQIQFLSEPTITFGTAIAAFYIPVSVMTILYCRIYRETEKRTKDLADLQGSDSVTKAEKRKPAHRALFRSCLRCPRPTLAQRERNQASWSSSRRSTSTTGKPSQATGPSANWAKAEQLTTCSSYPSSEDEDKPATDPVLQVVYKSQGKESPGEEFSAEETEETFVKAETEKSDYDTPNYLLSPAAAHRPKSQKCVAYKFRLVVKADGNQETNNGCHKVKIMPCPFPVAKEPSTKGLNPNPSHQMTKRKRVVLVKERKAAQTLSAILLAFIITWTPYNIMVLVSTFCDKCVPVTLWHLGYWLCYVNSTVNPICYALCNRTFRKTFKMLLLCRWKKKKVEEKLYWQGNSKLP

The target in a further experiment is Cannabinoid receptor 1 (Homo sapiens, UniProt P21554). It is filed as functional.
The next experiment has as its target T4, Substance-K receptor (Homo sapiens, UniProt P21452).
T4 sequence (P21452 whole entry): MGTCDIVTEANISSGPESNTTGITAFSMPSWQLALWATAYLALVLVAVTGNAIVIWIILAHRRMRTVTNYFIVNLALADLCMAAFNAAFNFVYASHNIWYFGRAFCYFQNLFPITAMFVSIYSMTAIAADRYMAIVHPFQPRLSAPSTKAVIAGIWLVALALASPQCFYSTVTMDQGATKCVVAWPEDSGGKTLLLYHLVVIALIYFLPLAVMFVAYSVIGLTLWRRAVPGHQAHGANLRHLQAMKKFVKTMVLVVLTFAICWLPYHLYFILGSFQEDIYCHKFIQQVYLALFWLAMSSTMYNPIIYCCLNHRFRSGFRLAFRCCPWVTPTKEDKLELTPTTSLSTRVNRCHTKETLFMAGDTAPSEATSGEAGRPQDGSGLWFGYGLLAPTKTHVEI

Some results are limits rather than exact numbers.
Also: assay procedure not described here.

5-hydroxytryptamine receptor 7, sequence (P34969 whole entry): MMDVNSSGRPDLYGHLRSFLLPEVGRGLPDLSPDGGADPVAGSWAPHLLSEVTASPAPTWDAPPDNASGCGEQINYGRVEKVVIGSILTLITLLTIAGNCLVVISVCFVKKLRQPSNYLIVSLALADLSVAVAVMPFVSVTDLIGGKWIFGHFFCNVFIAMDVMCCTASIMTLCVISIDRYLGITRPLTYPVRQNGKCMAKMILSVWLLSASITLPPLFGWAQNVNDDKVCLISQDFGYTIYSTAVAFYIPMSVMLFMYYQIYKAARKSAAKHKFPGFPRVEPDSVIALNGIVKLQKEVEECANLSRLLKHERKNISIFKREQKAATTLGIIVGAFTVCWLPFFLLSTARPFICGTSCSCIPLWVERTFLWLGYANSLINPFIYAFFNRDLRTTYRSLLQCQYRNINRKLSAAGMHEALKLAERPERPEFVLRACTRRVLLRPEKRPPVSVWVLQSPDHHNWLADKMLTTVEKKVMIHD
Beta-3 adrenergic receptor, sequence (P13945 whole entry): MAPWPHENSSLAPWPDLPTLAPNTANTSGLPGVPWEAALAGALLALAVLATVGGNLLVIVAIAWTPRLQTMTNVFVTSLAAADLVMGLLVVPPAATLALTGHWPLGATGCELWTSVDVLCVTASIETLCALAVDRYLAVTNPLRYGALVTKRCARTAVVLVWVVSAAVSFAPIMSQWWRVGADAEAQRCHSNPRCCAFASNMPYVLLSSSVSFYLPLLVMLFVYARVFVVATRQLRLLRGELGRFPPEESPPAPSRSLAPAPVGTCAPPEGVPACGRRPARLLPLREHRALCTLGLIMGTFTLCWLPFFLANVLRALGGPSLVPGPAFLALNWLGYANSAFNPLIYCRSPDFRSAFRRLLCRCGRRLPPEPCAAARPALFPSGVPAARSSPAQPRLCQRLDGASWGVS
Sodium channel protein type 5 subunit alpha, sequence (Q14524 whole entry): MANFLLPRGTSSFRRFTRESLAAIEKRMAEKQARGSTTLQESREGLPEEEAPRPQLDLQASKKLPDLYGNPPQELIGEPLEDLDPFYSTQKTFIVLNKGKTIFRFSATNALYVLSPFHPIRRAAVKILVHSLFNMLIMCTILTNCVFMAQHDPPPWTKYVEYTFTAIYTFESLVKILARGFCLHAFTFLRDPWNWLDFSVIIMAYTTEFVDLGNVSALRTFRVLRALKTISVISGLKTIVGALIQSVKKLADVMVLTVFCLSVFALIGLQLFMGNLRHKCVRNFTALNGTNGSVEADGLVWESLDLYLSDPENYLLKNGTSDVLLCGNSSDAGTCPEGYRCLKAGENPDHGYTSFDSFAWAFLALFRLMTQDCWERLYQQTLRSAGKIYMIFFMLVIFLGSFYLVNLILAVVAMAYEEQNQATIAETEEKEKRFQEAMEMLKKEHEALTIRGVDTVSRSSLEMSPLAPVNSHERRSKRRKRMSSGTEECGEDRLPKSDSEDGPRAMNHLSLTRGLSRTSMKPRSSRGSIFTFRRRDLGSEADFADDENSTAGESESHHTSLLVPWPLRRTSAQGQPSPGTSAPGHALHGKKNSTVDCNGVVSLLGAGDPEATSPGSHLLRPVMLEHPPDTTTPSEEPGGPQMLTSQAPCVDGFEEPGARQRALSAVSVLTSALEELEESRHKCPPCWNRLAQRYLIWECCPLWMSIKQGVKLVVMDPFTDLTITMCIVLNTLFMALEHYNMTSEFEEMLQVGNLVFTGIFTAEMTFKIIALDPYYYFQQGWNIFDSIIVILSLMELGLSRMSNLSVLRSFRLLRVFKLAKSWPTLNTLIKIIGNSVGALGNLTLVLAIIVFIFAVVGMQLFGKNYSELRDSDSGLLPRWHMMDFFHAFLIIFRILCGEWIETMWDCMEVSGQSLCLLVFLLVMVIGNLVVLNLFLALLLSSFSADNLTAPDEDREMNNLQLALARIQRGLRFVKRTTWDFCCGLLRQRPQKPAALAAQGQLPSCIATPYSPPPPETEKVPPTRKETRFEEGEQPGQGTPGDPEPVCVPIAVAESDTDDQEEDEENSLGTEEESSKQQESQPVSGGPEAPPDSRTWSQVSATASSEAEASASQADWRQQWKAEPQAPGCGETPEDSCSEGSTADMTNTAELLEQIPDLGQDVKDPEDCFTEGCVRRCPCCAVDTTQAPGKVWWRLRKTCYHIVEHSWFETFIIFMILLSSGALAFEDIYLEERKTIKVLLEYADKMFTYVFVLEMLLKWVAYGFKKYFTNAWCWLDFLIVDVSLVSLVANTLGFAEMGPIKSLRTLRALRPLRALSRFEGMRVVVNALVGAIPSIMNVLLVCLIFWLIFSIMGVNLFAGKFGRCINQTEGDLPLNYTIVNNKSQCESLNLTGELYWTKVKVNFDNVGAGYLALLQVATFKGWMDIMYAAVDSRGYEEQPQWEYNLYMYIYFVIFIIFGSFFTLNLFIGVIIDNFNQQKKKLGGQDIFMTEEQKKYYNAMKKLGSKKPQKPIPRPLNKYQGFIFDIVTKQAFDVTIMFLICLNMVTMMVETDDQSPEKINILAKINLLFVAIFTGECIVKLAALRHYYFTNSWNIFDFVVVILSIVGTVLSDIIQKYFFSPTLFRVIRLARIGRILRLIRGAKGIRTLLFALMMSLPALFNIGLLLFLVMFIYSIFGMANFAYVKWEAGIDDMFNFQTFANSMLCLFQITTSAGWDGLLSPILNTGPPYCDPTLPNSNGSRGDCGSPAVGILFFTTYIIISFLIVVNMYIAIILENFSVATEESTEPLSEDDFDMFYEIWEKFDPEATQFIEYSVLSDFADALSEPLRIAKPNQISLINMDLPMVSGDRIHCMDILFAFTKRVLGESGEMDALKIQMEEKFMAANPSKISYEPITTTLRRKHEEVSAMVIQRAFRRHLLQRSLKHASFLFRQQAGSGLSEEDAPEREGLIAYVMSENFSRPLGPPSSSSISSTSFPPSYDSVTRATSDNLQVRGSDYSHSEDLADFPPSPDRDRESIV
Gamma-aminobutyric acid type B receptor subunit 1, sequence (Q9UBS5 whole entry): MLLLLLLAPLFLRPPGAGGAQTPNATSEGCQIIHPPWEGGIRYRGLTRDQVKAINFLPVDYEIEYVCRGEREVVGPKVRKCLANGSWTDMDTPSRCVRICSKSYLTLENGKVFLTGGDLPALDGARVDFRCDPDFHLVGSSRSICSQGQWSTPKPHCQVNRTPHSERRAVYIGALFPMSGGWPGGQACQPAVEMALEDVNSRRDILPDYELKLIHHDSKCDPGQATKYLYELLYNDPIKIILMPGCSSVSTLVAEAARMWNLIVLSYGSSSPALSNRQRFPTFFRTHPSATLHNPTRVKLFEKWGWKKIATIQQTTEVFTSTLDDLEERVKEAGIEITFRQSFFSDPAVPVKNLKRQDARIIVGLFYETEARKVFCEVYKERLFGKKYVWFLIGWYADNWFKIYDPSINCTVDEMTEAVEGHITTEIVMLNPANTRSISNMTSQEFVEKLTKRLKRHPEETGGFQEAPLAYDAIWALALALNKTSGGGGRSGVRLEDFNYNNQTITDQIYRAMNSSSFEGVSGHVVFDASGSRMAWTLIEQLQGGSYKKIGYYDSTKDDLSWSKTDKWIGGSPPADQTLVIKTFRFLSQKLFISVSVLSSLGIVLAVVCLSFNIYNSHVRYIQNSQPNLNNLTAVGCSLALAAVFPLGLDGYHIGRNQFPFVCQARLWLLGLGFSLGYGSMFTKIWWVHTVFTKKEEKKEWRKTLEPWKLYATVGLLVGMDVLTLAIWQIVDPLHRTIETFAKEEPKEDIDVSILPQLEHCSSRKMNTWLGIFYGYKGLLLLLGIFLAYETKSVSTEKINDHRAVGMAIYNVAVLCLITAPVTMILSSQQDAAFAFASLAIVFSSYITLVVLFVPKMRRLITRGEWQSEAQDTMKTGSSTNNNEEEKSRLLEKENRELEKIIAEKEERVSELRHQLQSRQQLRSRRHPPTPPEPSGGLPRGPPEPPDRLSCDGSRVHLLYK
Cannabinoid receptor 1, sequence (P21554 whole entry): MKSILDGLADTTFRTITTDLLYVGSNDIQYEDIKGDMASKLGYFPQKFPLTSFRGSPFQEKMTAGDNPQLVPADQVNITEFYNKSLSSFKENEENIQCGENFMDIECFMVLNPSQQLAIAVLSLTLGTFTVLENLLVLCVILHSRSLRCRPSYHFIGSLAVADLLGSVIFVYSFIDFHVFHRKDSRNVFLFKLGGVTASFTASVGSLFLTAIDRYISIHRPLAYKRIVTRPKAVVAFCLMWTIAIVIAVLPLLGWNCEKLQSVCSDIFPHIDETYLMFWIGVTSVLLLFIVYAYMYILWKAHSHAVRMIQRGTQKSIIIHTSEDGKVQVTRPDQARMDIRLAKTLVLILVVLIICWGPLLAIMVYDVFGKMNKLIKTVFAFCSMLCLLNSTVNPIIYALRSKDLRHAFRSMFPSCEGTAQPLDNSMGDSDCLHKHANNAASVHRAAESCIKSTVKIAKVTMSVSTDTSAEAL
5-hydroxytryptamine receptor 6, sequence (P50406 whole entry): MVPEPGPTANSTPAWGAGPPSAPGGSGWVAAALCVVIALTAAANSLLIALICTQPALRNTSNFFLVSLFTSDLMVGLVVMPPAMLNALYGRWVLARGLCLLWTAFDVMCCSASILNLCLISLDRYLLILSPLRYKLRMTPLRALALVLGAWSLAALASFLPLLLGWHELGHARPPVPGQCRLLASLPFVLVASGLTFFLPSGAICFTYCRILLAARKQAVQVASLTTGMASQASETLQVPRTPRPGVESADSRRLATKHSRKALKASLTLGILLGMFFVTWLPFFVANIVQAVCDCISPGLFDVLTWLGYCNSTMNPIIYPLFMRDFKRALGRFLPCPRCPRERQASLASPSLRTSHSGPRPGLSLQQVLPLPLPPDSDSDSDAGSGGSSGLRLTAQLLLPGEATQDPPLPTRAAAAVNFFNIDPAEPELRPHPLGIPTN

As for `CCC[C@H](NC(=O)[C@@H]1[C@H]2CCC[C@H]2CN1C(=O)[C@@H](NC(=O)[C@@H](NC(=O)c1cnccn1)C1CCCCC1)C(C)(C)C)C(=O)C(=O)NC1CC1`, the values for the AC50 (in [1]; on Androgen receptor; in experiment [2]) were over 30 µM, over 30 µM and over 10 µM, respectively.

Regarding `CC(C)COCC(CN(Cc1ccccc1)c1ccccc1)N1CCCC1` (stereo not given) [BEPRIDIL], the half-maximal activity concentration (AC50) in experiment [1] is 11.9 µM; in experiment [3], over 30 µM; in experiment [4], 2.1 µM.

For `C/N=C(\NC)NCc1ccccc1` [BETHANIDINE], the AC50 in experiment [5] and in [3] was over 30 µM each time.

Consider `CCC(C)C1(CC)C(=O)NC(=O)NC1=O` (stereo not given) [BUTABARBITAL], for which the AC50 in [3] is over 30 µM.

On Androgen receptor, `CC1OC2(CS1)CN1CCC2CC1` (stereo not given) [CEVIMELINE] came in with an AC50 of over 10 µM.

For `CNC1=Nc2ccc(Cl)cc2C(c2ccccc2)=[N+]([O-])C1` [CHLORDIAZEPOXIDE], the AC50 at Androgen receptor was over 30 µM.

On to `CC(CCc1ccc(O)cc1)NCCc1ccc(O)c(O)c1` (stereo not given) [DOBUTAMINE], for which the AC50 in experiment [1] was over 30 µM; in experiment [2], over 10 µM.

Take `CCC(=O)O[C@]1(C(=O)SCF)[C@H](C)C[C@H]2[C@@H]3C[C@H](F)C4=CC(=O)C=C[C@]4(C)[C@@]3(F)[C@@H](O)C[C@@]21C` [FLUTICASONE PROPIONATE]: the figures for the AC50 in experiment [1] and in experiment [2] were over 30 µM and over 10 µM, respectively.

For `C[C@]12CC[C@@H]3c4ccc(O)cc4C[C@@H](CCCCCCCCC[S+]([O-])CCCC(F)(F)C(F)(F)F)[C@H]3[C@@H]1CC[C@@H]2O` (stereo not given in full) [FULVESTRANT], the AC50 in [5] is over 30 µM; in experiment [3], over 30 µM; in experiment [4], over 10 µM.

For `Cc1cnc(C(=O)NCCc2ccc(S(=O)(=O)NC(=O)NC3CCCCC3)cc2)cn1` [GLIPIZIDE], the AC50 is over 30 µM in experiment [1]; over 10 µM in experiment [2]; over 10 µM in experiment [6]; over 10 µM in experiment [7]; over 10 µM in experiment [8].

On to `CCC1(c2ccccc2)CCC(=O)NC1=O` (stereo not given) [GLUTETHIMIDE], for which the AC50 at Androgen receptor was over 10 µM; in experiment [4] it was over 50 µM.

As for `CC(C)NCC(O)c1ccc(O)c(O)c1` (stereo not given) [ISOPROTERENOL], the concentration at half-maximal activity (AC50) in [2] was over 10 µM.

`Oc1ccc2c(c1)CC[C@H](c1ccccc1)[C@@H]2c1ccc(OCCN2CCCC2)cc1` [LASOFOXIFENE] had an AC50 in experiment [3] of over 30 µM.

With `CN1CCN(C2=Nc3ccccc3Oc3ccc(Cl)cc32)CC1` [LOXAPINE], the AC50 in experiment [1] was over 30 µM; in [2], over 10 µM; in [9], 0.671 µM; on Cannabinoid receptor 1 it was over 10 µM; in experiment [6], over 10 µM; in [7], 0.0574 µM. Besides, the AC50 in [8] was 0.732 µM; at Substance-K receptor it was over 10 µM.

In experiment [3], `C[C@H](Cc1ccc(O)c(O)c1)[C@@H](C)Cc1ccc(O)c(O)c1` [MASOPROCOL] had an AC50 of over 30 µM.

For the compound `OC1(c2ccc(Cl)cc2)c2ccccc2C2=NCCN21` (stereo not given) [MAZINDOL], the AC50 is over 30 µM in experiment [1]; over 30 µM on Androgen receptor; over 10 µM in [2]; over 10 µM in experiment [9]; over 10 µM at Cannabinoid receptor 1; over 10 µM in experiment [6]. The AC50 is over 10 µM in experiment [7], over 10 µM in [8], over 50 µM in experiment [4] and over 10 µM on Substance-K receptor.

Consider `CC12CC3CC(C)(C1)CC(N)(C3)C2` [MEMANTINE], for which the half-maximal activity concentration (AC50) in experiment [1] was 20.1 µM; in experiment [2] it was over 10 µM.

`CCOC(=O)C1=C(C)NC(C)=C(C(=O)OC)C1c1cccc([N+](=O)[O-])c1` (stereo not given) [NITRENDIPINE]: the half-maximal activity concentration (AC50) was 15.1 µM in [1], over 10 µM in experiment [2] and 5 µM in [4].

In experiment [5], `O=[N+]([O-])c1ccc(O)c2ncccc12` [NITROXOLINE] registered an AC50 of over 30 µM.

`[H]/N=C(/N)N/C(=N/[H])NCCc1ccccc1` [PHENFORMIN]: the AC50 was over 30 µM in experiment [1] and over 10 µM in experiment [2].

In the case of `CC(N)C(O)c1ccccc1` (stereo not given) [PHENYLPROPANOLAMINE], the AC50 in experiment [1] was over 30 µM; in [2], over 10 µM; in experiment [9] it was over 10 µM; at Cannabinoid receptor 1, over 10 µM; in [6] it was over 10 µM; in experiment [7], over 10 µM. The compound further displayed an AC50 in experiment [8] of over 10 µM.

At Androgen receptor, `CNCc1ccc(-c2[nH]c3cc(F)cc4c3c2CCNC4=O)cc1` [RUCAPARIB] yielded an AC50 of over 30 µM.

As to `CCC(=O)O[C@H]1CC[C@H]2[C@@H]3CCC4=CC(=O)CC[C@]4(C)[C@H]3CC[C@]12C` [TESTOSTERONE PROPIONATE], on Androgen receptor, the half-maximal activity concentration (AC50) was 1.7 µM.

`CCC(C)C(CC)C(N)=O` (stereo not given) [VALNOCTAMIDE] registered a half-maximal activity concentration (AC50) in [5] of over 30 µM.

With `Cc1cc(C(C)(C)C)cc(C)c1CC1=NCCN1` [XYLOMETAZOLINE], in [5], the AC50 was over 30 µM.
